Experimental data taken from patent publication US8076352B2, “Administration of carboline derivatives useful in the treatment of cancer and other diseases” (PTC Therapeutics, Inc., priority 2004, dated 2011).
One block for each compound: values may come before it.

Key:
[1] = test system: hypoxia-inducible endogenous VEGF expression in HeLa cells; test: Hypoxia-inducible endogenous VEGF expression, VEGF ELISA of conditioned media (dose-response EC50); type: cell-based
Outline: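 HeLa cells were cultured 24-48 h under hypoxia (1% O2, 5% CO2, balance N2) with or without compound. Conditioned-media VEGF protein was measured by ELISA against a standard curve. EC50 and CC50 come from percentage-inhibition curves over, e.g., seven concentrations, with maximal inhibition set at 100%.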

[2] = target: T1, recombinant PDE5 (Homo sapiens, UniProt O76074); test: PDE5 activity, High-Efficiency Fluorescence Polarization Assay (HEFP); type: biochemical; conditions: 45 minutes at room temperature, vs positive control Tadalafil, FIG. 12
T1 construct: purchased CalBioChem
Procedure: The compounds of the invention are tested to assess their affect on phosphodiesterase 5 (PDE5) activity. The affect on PDE5 activity is determined using the High-Efficiency Fluorescence Polarization Assay (HEFP) kit from Molecular Devices. The HEFP assay measures the activity of PDE-5 by using fluorescein-labeled derivatives of cGMP as a substrate. When hydrolyzed by PDE-5, fluorescein-labeled cGMP derivatives are able to bind to a binding reagent. The cGMP substrate:binding reagent complex results in a highly polarized fluorescent state.
After combining recombinant PDE5 (CalBioChem) and the cGMP substrate, the mixture is incubated at room temperature for 45 minutes in the presence or absence of compounds or a positive control (Tadalafil). The reaction is stopped upon addition of the binding reagent. Fluorescence polarization is determined on a Viewlux using a setting recommended by the manufacturer.

[3] = test system: HT1080 cells (a human fibrosarcoma cell line); test: In vivo tumor growth PD model, tumor and plasma VEGF levels by human VEGF ELISA; parameters: species or system nude mice; conditions: 10 mg/kg 3×/week, vs vehicle, FIG. 5
Procedure: (§1) Compounds of the invention also show activity in the following pharmacodynamic model that assesses tumor VEGF levels. Briefly, HT1080 cells (a human fibrosarcoma cell line) may be implanted subcutaneously in nude mice. After seven days, mice may be administrated compounds orally at a desired dosage range, e.g., 200 mg/kg/day, for seven days. The tumors may then be excised from mice, weighed and homogenized in Tris-HCl buffer containing proteinase inhibitors. Moulder et al., Cancer Res. 61(24):8887-95 (2001). Tumor VEGF levels are subsequently measured using a human VEGF ELISA kit (R&D System). Protein concentrations of the homogenates are measured with a Bio-Rad Protein assay kit and tumor VEGF levels are normalized to the protein concentrations.
(§2) In similarly conducted experiments, compounds of the invention are shown to reduce lung cancer tumor growth (at a dosage of 3 mg/kg, twice a day, or 30 mg/kg, twice a day) (FIG. 1), Ewing's sarcoma and neuroblastoma tumor growth (at a dosage of 30 mg/kg, once a day) (FIG. 2), fibrosarcoma tumor growth (at a dosage of 10 mg/kg 3×/week) (FIG. 3), and human skin malignant melanoma (at a dosage of 10 mg/kg 5×/week) (FIG. 4) as compared to vehicle. Furthermore, the compounds of the invention are shown to reduce VEGF plasma and tumor levels in fibrosarcoma tumors as compared to vehicle (at a dosage of 10 mg/kg 3×/week) (FIG. 5).

[4] = test system: human skin malignant melanoma; test: Malignant melanoma tumor growth in vivo; parameters: species or system nude mice; conditions: 10 mg/kg 5×/week, vs vehicle, FIG. 4
Procedure: as §1, §2

[5] = test system: VEGF; test: Tumor and plasma VEGF expression in vivo, alone or with Avastin; parameters: species or system nude mice; conditions: alone or in combination with Avastin, FIG. 9
Procedure: as §1, §2

[6] = test system: human cervical carcinoma; test: Cervical cancer tumor growth in vivo, alone or with Taxol; parameters: species or system nude mice; conditions: alone or in combination with Taxol (paclitaxel), FIG. 7
[7] = test system: colon cancer tumor; test: Colon cancer tumor growth in vivo, alone or with 5-FU; parameters: species or system nude mice; conditions: alone or in combination with 5-FU (fluorouracil), FIG. 6
[8] = test system: Ewing's sarcoma (SK-NEP-1) and neuroblastoma (SY5Y and NGP) tumors; test: Angiogenesis in excised tumors, immunochemistry with antibodies to Collagen IV; type: in vivo, mice; conditions: Collagen IV staining of excised tumors, FIG. 10
Excerpt: The tumors excised from the mice can also be used in immunochemistry experiments to determine levels of angiogenesis. […] SK-NEP-1 cells were previously believed to be a useful Wilms tumor model.

[9] = test system: VEGF mRNA; test: VEGF mRNA levels by Real-Time PCR under hypoxic conditions; type: cell-based, Human; conditions: FIG. 11
Procedure: Human solid tumor cells are treated with various concentrations of a compound of the present invention or a control under hypoxic conditions. Actinomycin D blocks transcription and is used as a control. Total RNA is isolated using the RNeasy kit (Qiagen, Inc., Valencia, Calif., USA) or an acid-guanidinium thiocyanate-phenol-chloroform based method (See Chomczynski, P. and Sacchi, N., Anal. Biochem. 162: 156 (1987), hereby incorporated by reference).
Concentration of total RNA can be determined using the RiboGreen® fluorescent dye (Molecular Probes, Inc., Eugene, Oreg., USA) with the VersaFluor Fluorometer System (BioRad, Hercules, Calif., USA). Quality and integrity of total RNA can be assessed on 1% formaldehyde-agarose gels. First-strand cDNA was synthesized using 1 μg of total RNA (DNase-treated) in a 20 μl reverse transcriptase reaction mixture (Leclerc G J, Barredo J C, Clin. Cancer Res. 2001, 7:942-951, which is hereby incorporated by reference). A region of the VEGF mRNA is amplified using PCR primers. The cDNA amplified fragment (approximately 300 basepairs) is cloned into a vector such as the pCR2.1-TOPO vector (Invitrogen, Carlsbad, Calif., USA) to generate a plasmid. […] Real-Time quantitations are performed using the BIO-RAD iCycler iQ system (BioRad, Hercules, Calif., USA). The fluorescence threshold value can be calculated using the iCycle iQ system software.

[10] = test system: tumor; test: Tumor growth in vivo, alone or with Avastin; parameters: species or system nude mice; conditions: alone or in combination with Avastin (bevacizumab), FIG. 8
Procedure: as §1, §2

[11] = test system: fibrosarcoma tumor; test: Fibrosarcoma tumor growth in vivo; parameters: species or system nude mice; conditions: 10 mg/kg 3×/week, vs vehicle, FIG. 3
Procedure: as §1, §2

[12] = test system: Ewing's sarcoma (SK-NEP-1); test: Ewing's sarcoma tumor growth in vivo; parameters: species or system nude mice; conditions: 30 mg/kg once a day, vs vehicle, FIG. 2
Procedure: as §1
as §2, with “5). […]” for “5).”

[13] = test system: neuroblastoma (SY5Y and NGP); test: Neuroblastoma tumor growth in vivo; parameters: species or system nude mice; conditions: 30 mg/kg once a day, vs vehicle, FIG. 2
Procedure: as §1
as §2, with “5). […]” for “5).”

[14] = test system: lung cancer tumor; test: Lung cancer tumor growth in vivo; parameters: species or system nude mice; conditions: 3 mg/kg twice a day or 30 mg/kg twice a day, vs vehicle, FIG. 1
Procedure: as §1, §2

[15] = Homo sapiens, HeLa cells under hypoxic conditions
[16] = Homo sapiens, HeLa cells, hypoxic conditions (1% O2, 5% CO2)

Structure (SMILES): CCOC(=O)N1CCc2c([nH]c3ccc(Br)cc23)C1c1ccc(C(C)C)cc1 (stereo not drawn) [Compound 7]
EC50 [1, 15]: < 8 nM
PDE-5 activity [2]: do not inhibit the activity of PDE-5

Structure (SMILES): COc1ccc(C2c3[nH]c4ccc(Cl)cc4c3CCN2C(=O)Oc2ccc(Cl)cc2)cc1 (stereo not drawn) [Compound 10]
VEGF expression in a fibrosarcoma tumor (tumor VEGF levels) [3]: inhibition of VEGF expression
malignant melanoma tumor growth [4]: inhibition of malignant melanoma tumor growth
plasma VEGF expression [5]: inhibition
tumor VEGF expression [5]: inhibition
cervical cancer tumor growth [6]: inhibition of cervical cancer tumor growth
colon cancer tumor growth [7]: inhibition of colon cancer tumor growth
angiogenesis [8]: inhibition of angiogenesis
EC50 [1, 15]: < 8 nM
VEGF mRNA levels [9]: does not affect VEGF mRNA levels
tumor growth [10]: inhibition of tumor growth
fibrosarcoma tumor growth [11]: inhibition of fibrosarcoma tumor growth
PDE-5 activity [2]: do not inhibit the activity of PDE-5
Ewing's sarcoma tumor growth [12]: inhibition
neuroblastoma tumor growth [13]: inhibition
lung cancer tumor growth [14]: inhibition of lung cancer tumor growth

Structure (SMILES): COCCN(C)CC(O)COc1ccc(C2c3[nH]c4ccc(Cl)cc4c3CCN2C(=O)Oc2ccc(Cl)cc2)cc1 (stereo not drawn) [Compound 964]
EC50 [1, 16]: 8 to 40 nM

Second part, the compound after the results:

EC50 [1, 15]: < 8 nM
PDE-5 activity [2]: do not inhibit the activity of PDE-5
Structure (SMILES): CC(C)c1ccc(C2c3[nH]c4ccc(Br)cc4c3CCN2c2ncccn2)cc1 (stereo not drawn) [Compound 25]

EC50 [1, 15]: > 1000 nM
Structure (SMILES): COC(=O)c1cccc(NC(=S)N2CCc3c([nH]c4ccccc34)C2c2ccc(OC)cc2)c1 (stereo not drawn) [Compound 316]

EC50 [1, 15]: > 1000 nM
Structure (SMILES): COc1ccc(C2NCCc3c2[nH]c2ccc(OCc4ccccc4)cc32)cc1 (stereo not drawn) [Compound 292]

EC50 [1, 16]: 8 to 40 nM
Structure (SMILES): CS(=O)(=O)NCC(O)COc1ccc(C2c3[nH]c4ccc(Cl)cc4c3CCN2C(=O)Oc2ccc(Cl)cc2)cc1 (stereo not drawn) [Compound 849]

EC50 ([1]; HeLa cells, hypoxic conditions (1% O2)): < 8 nM
Structure (SMILES): O=C(Oc1ccc(Cl)cc1)N1CCc2c([nH]c3ccc(Br)cc23)C1c1ccc(C(F)(F)F)cc1 (stereo not drawn) [Compound 570]
